Source: publication doi:10.1101/2025.11.04.686469, “Discovery of Host-Directed Small Molecules with Broad Anti-Leishmanial Efficacy” (bioRxiv, 2025)

Assays:
[1] = test system: intracellular L. donovani amastigotes; assay: Luminescent-based evaluation of intracellular anti-leishmanial activity in THP-1 macrophages; assay type: cell-based, Leishmania donovani; conditions: Leishmania donovani, THP-1; THP1 macrophages, luminescence assay, 72 hours of treatment; read-out: Intracellular L. donovani amastigotes Lum IC50
How it was run: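 PMA-differentiated THP-1 macrophages (150 nM, 72 h) were infected 18 h with firefly luciferase-expressing L. donovani LV82 promastigotes, then washed. Infected cells were treated with compounds at 0.1-10 μM for 72 h. Surviving intracellular amastigotes were quantified by firefly luciferase luminescence after cell lysis and 10 min substrate incubation at room temperature.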

[2] = test system: extracellular L. mexicana promastigotes; assay: Effect of compounds on promastigote viability (resazurin assay); assay type: cell-based, Leishmania mexicana
Experimental: The effect of compounds on extracellular promastigotes was evaluated using a resazurin-based assay as described previously. In short, late log phase Leishmania promastigotes were seeded in a 96 well plate at 1 x 10^5 parasites per well and treated with drugs (0.5 – 200 μM) for 72 hours at 25°C. Ten microliters of resazurin (0.02% w/v) were added to the treated parasites to achieve a final concentration of 0.002% w/v and incubated for 24 hours. Viability of the promastigotes was assessed by fluorescence (excitation 544 nm, emission 590 nm, SpectraMax M2, Molecular Devices).

lysozyme = target: T1, lysozyme (Homo sapiens, UniProt P61626); assay: Affinity capture with 197-bead in Leishmania infected macrophage lysate; assay type: binding; conditions: 197-bead vs control bead
T1 construct: endogenous in cells; host or cells: THP-1 cells differentiated with PMA and infected with L. mexicana promastigotes; cell lysate
T1 sequence (P61626 19-148): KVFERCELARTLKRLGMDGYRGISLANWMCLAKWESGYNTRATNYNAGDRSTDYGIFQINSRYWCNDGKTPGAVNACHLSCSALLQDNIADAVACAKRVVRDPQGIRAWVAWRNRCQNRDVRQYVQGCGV
Experimental: To generate cell lysate, ten million THP-1 cells were plated overnight in a 10cm dish, then differentiated with 150 nM phorbol 12-myristate 13-acetate (PMA) for 72 hours. The resulting macrophages were infected with L. mexicana promastigotes at a multiplicity of infection of 1:10 and incubated for 18 hours. After infection, cells were washed three times with PBS to remove extracellular promastigotes. Cells were then collected by scraping and pelleted with centrifugation. The cell pellet was resuspended in cell buffer (50mM Tris-HCl, 150mM NaCl, 2mM EDTA, 0.5% triton-x-100) and subjected to five freeze-thaw cycles. Samples were centrifuged 14,000g x 10 minutes to remove cellular debris. Protein concentration of supernatant was determined by BCA assay and cell lysate was stored at −80°C until further use.
Functionalized agarose beads were made as follows. NHS activated agarose beads were washed three times to remove acetone and resuspended in PBS to create a slurry. 494 (197 with ligation chemical handle) was prepared in 0.3 mL at 25mM in DMSO and 1.7 mL PBS was added to 1 mL of agarose slurry for a final volume of 3 mL at a concentration of 2.5mM (10% v/v DMSO). […]
500 μg cell lysate was incubated with 200 μL slurry at a final volume of 1 mL for 1 hr. […] Peptides were extracted, acidified, desalted using C18 spin columns, and analyzed by LC-MS/MS using Thermo Easy nLC 1200-QExactive HF. […]

[3] = test system: intracellular L. donovani in WT and Lys K/O BMDMs; assay: 197 target validation: Giemsa staining in BMDMs from wild-type and lysozyme knockout mice; assay type: cell-based, Leishmania donovani; conditions: WT vs Lys K/O BMDMs
Text: B6.129P2-Lyz2^tm1(cre)Ifo/J mice[23] (stock #004781, herein termed ‘Lys K/O’) were obtained from Jackson Laboratory. This strain has a nuclear-localized Cre recombinase inserted into the first coding ATG of the lysozyme 2 gene (Lyz2) which eliminates endogenous Lyz2 gene function. Wildtype C57BL6/J mice (stock #000664) were obtained as a control.
Bone marrow derived macrophages (BMDMs) were isolated from both mice and cultured as described above in “Image-based Evaluation of Intracellular Anti-Leishmanial Activity”. BMDMs were seeded onto glass cover slips, infected with LV82 L. donovani at a multiplicity of infection of 1:10. Cells were washed to remove extracellular promastigotes and treated with compounds (197, amphotericin B) for a 72-hour incubation. BMDM cells were then washed with phosphate buffered saline, fixed with ice-cold methanol, and stained with Giemsa (5% v/v in water). The cover slips with stained cells are mounted onto glass slides and imaged on EVOS XL (100X, Thermo Fisher Scientific). Leishmania amastigotes per 100 macrophages were determined in a blinded manner.

For `O=C(CNCc1cccc(F)c1)Nc1ccc(-n2cc(C(F)(F)F)nc2-c2ccc(-c3ccc(C(F)(F)F)cc3)cc2)cc1` [Compound 197], the IC50 [1] was 2400 nM, the “effect on L. mexicana extracellular promastigote viability” value [2] was “no effect” and the MIC50 ([2]; Leishmania mexicana, 72-hour incubation) was > 200 µM. The “affinity capture abundance of lysozyme, Log2 fold change” value (lysozyme) was 6.57 and the “anti-leishmanial activity in Lys K/O BMDMs” value [3] was “notably decreased”.
